# Data from patent publication US20260021167A1, “COMPOSITIONS AND METHODS FOR TREATING OR PREVENTING NEURODEGENERATIVE DISEASES” (Delaware State University, priority 2022, published 2026).
# Experiments:
# [1] = test system: N27 cells; experiment: Cell viability (MTT) assay after PFF exposure; type: cell-based, rat; settings: N27 cells after PFF (1 μg/ml) exposure for 24 h; compared to PFF only control
# Text: Cell Viability Assay. The MTT assay is a colorimetric assay that is based on the conversion of water-soluble MTT (3-(4,5-dimethylthiazol-2-yl)-2,5-diphenyltetrazolium bromide) into formazan crystal by mitochondrial dehydrogenase enzymes, soluble in 100% DMSO. The resulting solution is purple in color, and the color intensity is proportional to the viable cells for each well in a 96-well plate. A variety of SENP-1 inhibitors, such as SUMO-2 aldehyde, Momordin lc, streptonigrin, hinokiflavone, oleanolic acid and siRNA of SENP-1, were treated in N27 cells after PFF (1 μg/ml) exposure for 24 h. After adding 5 mM MTT dye to cells, the color intensity in MTT assays was measured using a spectrophotometer (SpectraMax M5e, Molecular devices, Dover, USA), at 570 nm with a reference wavelength of 630 nm. The cells were incubated with the MTT reagent (ab211091, Abcam) at 37° C. for 3 h, followed by solubilizing the formazan crystals in solution.
# In this study, numerous commercially available SENP-1 inhibitors were tested for the recovery effects from preformed fibrils of alpha-synuclein (PFF)-induced PD models in vitro. […]
# [2] = test system: PFF-injected old mice; experiment: Grooming in PFF-injected mice; type: in vivo, mouse; settings: 10 and/or 50 mg/kg oral, vs PFF only
# Experimental: (§1) A mouse model of Parkinson's disease is C57BL/6 male or female mice (50% each) injected with 5 μg of mouse PFF at 12 months old, followed by a treatment below for 6-7 weeks: • 1) without PFF injection, followed by vehicle (control, n=7); • 2) PFF injection, followed by vehicle (PFF only: control, n=8); • 3) PFF injection, followed by daily 10 mg/kg Momordin gavage (n=7-8); • 4) PFF injection, followed by daily 50 mg/kg Momordin gavage (n=7-8).
# Grooming. Individual pictures of each animal were taken over 3 days and analyzed for grooming capabilities. Additional data were collected over 6 weeks during the gavaging period for PFF-injected mice to monitor whether the mice in all groups performed grooming activities uniformly. The points were averaged at the end of the assessment after the mice were euthanized. The coat conditions of each animal were assessed to correlate motivation and activity levels for each animal. […] The grooming pictures were also analyzed by blinded raters and given a point out of 10, with 1 being a poor/dull coat and 10 being a shiny and healthy-looking coat.
# [3] = test system: protein aggregates; experiment: Thioflavin-T protein aggregation in brain sections of PFF-injected mice; type: in vivo, mouse
# [4] = target: T1, SENP-1 (Mus musculus, UniProt P59110); experiment: Western blot of SENP-1 in brain tissue extracts of PFF-injected mice; type: in vivo; settings: vs PFF only
# T1 construct: from tissue; host or cells: mouse brain: midbrain (MB) and striatum (STR) extracts
# T1 sequence (P59110 1-640): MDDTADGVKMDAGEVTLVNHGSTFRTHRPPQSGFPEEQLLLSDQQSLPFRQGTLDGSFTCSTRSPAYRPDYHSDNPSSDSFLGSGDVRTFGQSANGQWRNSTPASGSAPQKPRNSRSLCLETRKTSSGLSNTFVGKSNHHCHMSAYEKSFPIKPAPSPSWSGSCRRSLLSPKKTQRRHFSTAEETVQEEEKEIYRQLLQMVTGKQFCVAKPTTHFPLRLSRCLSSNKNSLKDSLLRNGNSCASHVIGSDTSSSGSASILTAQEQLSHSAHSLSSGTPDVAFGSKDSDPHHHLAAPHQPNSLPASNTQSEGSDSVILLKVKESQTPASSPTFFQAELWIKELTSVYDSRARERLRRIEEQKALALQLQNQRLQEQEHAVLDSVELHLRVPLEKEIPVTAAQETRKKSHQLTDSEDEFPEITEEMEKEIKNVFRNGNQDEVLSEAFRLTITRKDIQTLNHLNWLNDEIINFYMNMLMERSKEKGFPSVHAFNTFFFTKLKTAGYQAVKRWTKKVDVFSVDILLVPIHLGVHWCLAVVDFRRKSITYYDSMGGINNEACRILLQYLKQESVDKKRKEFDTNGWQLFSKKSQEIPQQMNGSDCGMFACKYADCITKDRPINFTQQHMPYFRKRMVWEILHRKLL
# Experimental: as §1
# (§2) Immunoblot Analyses. A total of three protein extractions were performed. In the first extraction, a gentle RIPA buffer containing the low concentration of detergent (25 mM Tris-HCL, 150 mM NaCl, 1% NP-40, 1% sodium deoxycholate and 0.1% SDS) was added with phosphatase inhibitors (100 μL for 10 mL) and 5 mM EDTA. The mixture was sonicated and centrifuged at 14,000 rpm for 10 min. The supernatant was collected for measuring the levels of phosphorylated α-syn, SENP-1 or SUMO-1 conjugated proteins for different groups. […] The primary antibodies pertaining to each protein analyzed were diluted at 1:1000 (p-Ser-129-α-synuclein, Cell signaling; SENP-1, SAB4501345, EMD) and incubated at 4° C. overnight. […] ImageJ was used to analyze specific bands on each blot and measured against the loading control (β-actin) for normalizing each band intensity.
# [5] = test system: SUMO-1; experiment: Western blot of SUMO-1 in brain tissue extracts of PFF-injected mice; type: in vivo, mouse; settings: vs PFF only
# Experimental: as §1, §2
# [6] = Passage of the BBB in mice; type: in vivo, mouse; settings: 10 or 50 mg/kg
# [7] = both 10 and 50 mg/kg oral, PFF-injected mice, vs PFF only
structure (smiles),measurement,setting,value
CC1(C)CC[C@]2(C(=O)O)CC[C@]3(C)C(=CC[C@@H]4[C@@]5(C)CC[C@H](O[C@@H]6O[C@H](C(=O)O)[C@@H](O)[C@H](O[C@@H]7OC[C@@H](O)[C@H](O)[C@H]7O)[C@H]6O)C(C)(C)[C@@H]5CC[C@]43C)[C@@H]2C1 [Momordin lc],cell viability from PFF-mediated toxicity (MTT assay),[1],significantly enhanced the cell viability
same,grooming,[2],improves
same,level of alpha-synuclein accumulation/aggregation in Thioflavin-T staining in various brain regions,"[3]; PFF injection, mouse brains",reduced the level of alpha-synuclein accumulation/aggregation
same,level of protein aggregates (Thioflavin-T) in the SNc,[3]; [7],significantly reduced
same,level of protein aggregates (Thioflavin-T) in the striatum,[3]; [7],significantly reduced
same,"PFF-induced SENP-1 in the MB (Western blot, tissue extracts)",[4]; midbrain,reduced
same,"PFF-induced SENP-1 in the STR (Western blot, tissue extracts)",[4]; striatum,reduced
same,"level of SUMO-1 in the MB (Western blot, tissue extracts)",[5]; midbrain,enhanced level of SUMO-1
same,"level of SUMO-1 in the STR (Western blot, tissue extracts)",[5]; striatum,enhanced level of SUMO-1
same,passage of the BBB,[6],effectively pass the BBB
